Results as given in US8012967B2, “Minor groove binders” (University of Strathclyde, priority 2006, dated 2011).
Converted amounts (≈) assume the structure as drawn. Like-named read-outs stand apart in the source and are kept apart here.

Assays:
[1] = system: Staphylococcus aureus Strain 1 (BSAC04(1)) (Clinical isolate from Glasgow Royal Infirmary); test: MIC, Staphylococcus aureus Strain 1; format: cell-based; conditions: Staphylococcus aureus, read-out: Minimum inhibitory concentrations (MICs), S aureus 1
Procedure, shortened: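 Broth microdilution in Mueller-Hinton Broth: test sample at 200 μg/ml working concentration, serially doubled across rows, incubated at 37° C. MIC taken from the colour pattern, with sterility and growth controls included.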

[2] = system: Aspergillus niger (IMI 1745); test: MIC, Aspergillus niger; format: cell-based; conditions: Aspergillus niger, read-out: Minimum inhibitory concentrations (MICs), A. niger
[3] = system: clinical strains of S. aureus in the Scottish Clinical Isolates Collection; test: MIC against collected clinical strains of S. aureus (BSAC03/04/05 (1)-(10)); format: cell-based, Staphylococcus aureus; conditions: for MIC: Staphylococcus aureus, read-out: Minimum inhibitory concentrations (MICs)
From the text: In particular, minimum inhibitory concentrations (MICs) against microorganisms (e.g. S. Aureus, Streptococcus faecalis, Aspergillus niger, Candida albicans or Mycobacterium fortuitum) for compounds of the invention may be measured using procedures such as those described in A. J. Drummond and R. D. Waigh “The development of microbiological methods for phytochemical screening” Recent Res. Devel. Phytochem. 4, 143-152 (2000), the disclosures of which document are hereby incorporated by reference.
Sample dilutions were typically prepared by dissolving the test sample (2 mg) in sterile water (10 mL) to provide a working concentration of 200 μg/ml. The test wells on each 96 well microtitre plate were initially inoculated with culture medium (100 μL) using Mueller-Hinton Broth for antibacterial assays and Sabouraud Broth for antifungal assays. A solution of each test sample (100 μL) was added to one row of each plate and a series of doubling dilutions made for successive rows. Incubation was at 37° C. for antibacterial assay and 25° C. for antifungal assay. […] From the observed pattern of colour, the MIC was determined. All tests included sterility and growth controls.
BSAC03/04/05 (1)-(10) refer to collected clinical strains of S. aureus in the Scottish Clinical Isolates Collection.

[4] = value in parentheses, na = not active

## Cn1cc(NC(=O)c2cc(NC(=O)c3ccc(/C=C/c4cnc5ccccc5c4)cc3)cn2C)cc1C(=O)NCCN1CCOCC1 [Example 2, 1-Methyl-4-({[1-methyl-4-({4-[(E)-2-(3-quinolinyl)ethenyl]benzoyl}amino)-1H-pyrrol-2-yl]carbonyl}amino)-N-[2-(4-morpholinyl)ethyl]-1H-pyrrole-2-carboxamide]
[1]; [4]
  MIC: 0.12 µg/mL
[1]; value outside parentheses
  MIC: 0.16 µM
[2]; [4]
  MIC: 50 µg/mL
[2]; value outside parentheses
  MIC: 67 µM
[3]; S. aureus BSAC culture year 2003 number 1
  MIC: 0.25 µg/mL (≈ 0.396 µM)
[3]; S. aureus BSAC culture year 2003 number 2
  MIC: 0.25 µg/mL (≈ 0.396 µM)
[3]; S. aureus BSAC culture year 2003 number 3
  MIC: 0.25 µg/mL (≈ 0.396 µM)
[3]; S. aureus BSAC culture year 2003 number 4
  MIC: 0.12 µg/mL (≈ 0.19 µM)
[3]; S. aureus BSAC culture year 2003 number 5
  MIC: 0.12 µg/mL (≈ 0.19 µM)
[3]; S. aureus BSAC culture year 2003 number 6
  MIC: 0.12 µg/mL (≈ 0.19 µM)
[3]; S. aureus BSAC culture year 2003 number 7
  MIC: 0.12 µg/mL (≈ 0.19 µM)
[3]; S. aureus BSAC culture year 2003 number 8
  MIC: 0.06 µg/mL (≈ 0.095 µM)
[3]; S. aureus BSAC culture year 2003 number 9
  MIC: 0.25 µg/mL (≈ 0.396 µM)
[3]; S. aureus BSAC culture year 2003 number 10
  MIC: 0.25 µg/mL (≈ 0.396 µM)
[3]; S. aureus BSAC culture year 2004 number 1
  MIC: 0.25 µg/mL (≈ 0.396 µM)
[3]; S. aureus BSAC culture year 2004 number 2
  MIC: 0.5 µg/mL (≈ 0.791 µM)
[3]; S. aureus BSAC culture year 2004 number 3
  MIC: 0.5 µg/mL (≈ 0.791 µM)
[3]; S. aureus BSAC culture year 2004 number 4
  MIC: 0.25 µg/mL (≈ 0.396 µM)
[3]; S. aureus BSAC culture year 2004 number 5
  MIC: 0.12 µg/mL (≈ 0.19 µM)
[3]; S. aureus BSAC culture year 2004 number 6
  MIC: 0.25 µg/mL (≈ 0.396 µM)
[3]; S. aureus BSAC culture year 2004 number 7
  MIC: 0.12 µg/mL (≈ 0.19 µM)
[3]; S. aureus BSAC culture year 2004 number 8
  MIC: 0.25 µg/mL (≈ 0.396 µM)
[3]; S. aureus BSAC culture year 2004 number 9
  MIC: 0.12 µg/mL (≈ 0.19 µM)
[3]; S. aureus BSAC culture year 2004 number 10
  MIC: 0.12 µg/mL (≈ 0.19 µM)
[3]; S. aureus BSAC culture year 2005 number 1
  MIC: 0.25 µg/mL (≈ 0.396 µM)
[3]; S. aureus BSAC culture year 2005 number 2
  MIC: 1 µg/mL (≈ 1.58 µM)
[3]; S. aureus BSAC culture year 2005 number 3
  MIC: 0.12 µg/mL (≈ 0.19 µM)
[3]; S. aureus BSAC culture year 2005 number 4
  MIC: 0.25 µg/mL (≈ 0.396 µM)
[3]; S. aureus BSAC culture year 2005 number 5
  MIC: 0.25 µg/mL (≈ 0.396 µM)
[3]; S. aureus BSAC culture year 2005 number 6
  MIC: 0.12 µg/mL (≈ 0.19 µM)
[3]; S. aureus BSAC culture year 2005 number 7
  MIC: 0.25 µg/mL (≈ 0.396 µM)
[3]; S. aureus BSAC culture year 2005 number 8
  MIC: 0.5 µg/mL (≈ 0.791 µM)
[3]; S. aureus BSAC culture year 2005 number 9
  MIC: 0.25 µg/mL (≈ 0.396 µM)
[3]; S. aureus BSAC culture year 2005 number 10
  MIC: 0.12 µg/mL (≈ 0.19 µM)
[3]; result in words
  microbicidal activity against a number of different strains of Staphylococcus aureus: displayed microbicidal activity
